Key:
[1] = Precipitation suppression with sucrose: absorbance at 620 nm of antisense oligomer in KCl/NaCl solution assumed to be in urine; assay type: physicochemical
Experimental: The presence or absence of the precipitation suppressing effects can be determined by adding the antisense oligomer and the precipitation suppressing agent in a solvent simulating urine and examining as described in Examples whether or not the precipitation suppressing agent reduces an increase in absorbance caused by precipitation of the antisense oligomer. For example, after the antisense oligomer and the precipitation suppressing agent are added to the solvent (e.g., 5 minutes later, 10 minutes later, 15 minutes later, 20 minutes later, 25 minutes later, 30 minutes later, 40 minutes later, 50 minutes later, 60 minutes later, 70 minutes later, 80 minutes later, or 90 minutes later), the absorbance can be determined under the conditions of 37° C. At this time, compared to a case of adding no precipitation suppressing agent, it can be determined to be effective in suppressing precipitation when a time until the precipitation is observed (until the increased absorbance at 620 nm is observed) or the absorbance at 620 nm are reduced, for example, by 5% or more, 10% or more, 20% or more, 30% or more, 40% or more, or 50% or more in the case of adding the precipitation suppressing agent. […] The absorbance at 620 nm of the solution thus mixed was measured using a plate reader, Infinite F200 Pro (manufactured by Tecan Group Ltd.) under heating conditions of 37° C. […]

kidney [2] = assay type: in vivo, C57BL/6J male mice; conditions: sucrose 20 to 100 mg/mL co-administered with PMO No. 8 50 mg/mL, 10 mL/kg tail vein, mice
Experimental: The antisense oligomer of PMO No. 8 was dissolved in water for injection comprising 0.9% sodium chloride, and a solution obtained by dissolving sucrose (manufactured by FUJIFILM Wako Pure Chemical Corporation) with physiological saline was added thereto to prepare a dosing solution comprising each of the antisense oligomer and sucrose at the concentrations shown in Tables 12 and 13. The obtained dosing solutions were administered into the tail vein of 6-week-old C57BL/6J male mice (N=3) at the amount of dosing solution shown in Table 12 (10 mL/kg). Next day, some mice to which the antisense oligomer of PMO No. 8 had been administered were subjected to autopsy, and formalin-fixed paraffin-embedded samples of the respective kidneys were prepared. Sections obtained by slicing the samples were subjected to hematoxylin-eosin staining and a histopathological test of the sections was performed.

kidney [3] = assay type: in vivo, C57BL/6J male mice; conditions: sucrose 200 mg/mL co-administered with PMO No. 11 130 mg/mL, 20 mL/kg tail vein, mice
Experimental: The antisense oligomer of PMO No. 11 was dissolved in physiological saline to prepare a control dosing solution comprising the antisense oligomer at the concentration shown in Table 14 and comprising no sucrose. Next, the antisense oligomer of PMO No. 11 and sucrose were dissolved in physiological saline to prepare dosing solutions comprising the antisense oligomer and sucrose at the concentrations shown in Table 14. The obtained dosing solutions were administered into the tail vein of 6-week-old C57BL/6J male mice (N=5) at 20 mL/kg. Next day, the mice were subjected to autopsy, and formalin-fixed paraffin-embedded samples of the respective kidneys were prepared. Sections obtained by slicing the samples were subjected to hematoxylin-eosin staining and a histopathological test of the sections was performed. Compared to the mice to which the control dosing solution comprising no sucrose has been administered, it was determined that the precipitation was suppressed in a case where there was improvement in the findings on the histopathological test of the kidney of the mice to which the dosing solution comprising sucrose has been administered.

[4] = Precipitation suppression with trehalose: absorbance at 620 nm of antisense oligomer in KCl/NaCl solution assumed to be in urine; assay type: physicochemical; conditions: Example 7: trehalose 45 to 180 mg/mL with PMO Nos. 1, 2, 7, and 8, 37° C., Tables 18 to 21
Experimental: The presence or absence of the precipitation suppressing effects can be determined by adding the antisense oligomer and the precipitation suppressing agent in a solvent simulating urine and examining as described in Examples whether or not the precipitation suppressing agent reduces an increase in absorbance caused by precipitation of the antisense oligomer. For example, after the antisense oligomer and the precipitation suppressing agent are added to the solvent (e.g., 5 minutes later, 10 minutes later, 15 minutes later, 20 minutes later, 25 minutes later, 30 minutes later, 40 minutes later, 50 minutes later, 60 minutes later, 70 minutes later, 80 minutes later, or 90 minutes later), the absorbance can be determined under the conditions of 37° C. At this time, compared to a case of adding no precipitation suppressing agent, it can be determined to be effective in suppressing precipitation when a time until the precipitation is observed (until the increased absorbance at 620 nm is observed) or the absorbance at 620 nm are reduced, for example, by 5% or more, 10% or more, 20% or more, 30% or more, 40% or more, or 50% or more in the case of adding the precipitation suppressing agent. […]

| SMILES | precipitation suppressing effect on antisense oligomers ([1]; Example 3: sucrose 45 to 270 mg/mL with PMO Nos. 8, 9, 10, 11, KCl and NaCl, 37° C., Tables 4 to 11) | precipitation suppressing effect on antisense oligomers ([1]; Example 6: sucrose 45 to 135 mg/mL with PMO Nos. 1, 2, and 7, 37° C., Tables 15 to 17) | precipitation suppressing effect in kidney (amount of precipitates, basophilic substances in lumens of renal tubules) (kidney [2]) | precipitation suppression in kidney (improvement in findings on histopathological test) (kidney [3]) | precipitation suppressing effect on antisense oligomers [4] |
| --- | --- | --- | --- | --- | --- |
| OC[C@H]1O[C@@](CO)(O[C@H]2O[C@H](CO)[C@@H](O)[C@H](O)[C@H]2O)[C@@H](O)[C@@H]1O [sucrose] | suppress the precipitation of antisense oligomers | suppress the precipitation of antisense oligomers | amount of precipitates decreased according to the concentrations of sucrose | confirmed to suppress precipitation | – |
| OC[C@H]1O[C@H](O[C@H]2O[C@H](CO)[C@@H](O)[C@H](O)[C@H]2O)[C@H](O)[C@@H](O)[C@@H]1O [trehalose] | – | – | – | – | suppress the precipitation of antisense oligomers |

Source: US20240285770A1, “PRECIPITATION SUPPRESSING AGENT” (Nippon Shinyaku Co., Ltd., priority 2021, published 2024)
